Target: T1, human MCH-1 receptor (Homo sapiens, UniProt Q99705)
T1 construct: expressed in transfected cells
Experiment: Ca2+ mobilization experiment for the MCH-1 receptor (FLIPR), inhibition of MCH-induced Ca2+ mobilization
Type: cell-based
Settings: CHO cells stably expressing human MCH-1 receptor, inhibition of MCH-induced Ca2+ response, read-out: MCH-1 pIC50 (converted)
Method: The interaction of the compounds of Formula (I) with MCH-1 receptors was assessed in in vitro transient calcium (Ca^2+) mobilization assays in the fluorimetric imaging plate reader (FLIPR) format (Sullivan et al. 1999, Methods Mol Biol 114:125-133). In general, the natural agonist (MCH) is incubated with cells expressing the MCH-1 receptor, which elicits a concentration-dependent transient mobilization of Ca^2+ from internal stores. The interaction of the test compounds with the receptor is assessed in competition experiments. Various concentrations of the test compound are added to the incubation mixture containing the receptor-expressing cells and a submaximal concentration of MCH. The test compound in proportion to its antagonist potency and its concentration inhibits MCH-induced Ca^2+ mobilization.
Chinese Hamster ovary cells (CHO) stably expressing the human MCH-1 receptor are grown in a 1:1 mixture of Dulbecco's Modified Eagles Medium (DMEM) and HAM's F12 medium including Glutamax™ (Invitrogen), supplemented with 10% heat-inactivated fetal bovine serum and 400 μg/ml geneticin.
Twenty-four hours before the experiment, MCH-1 receptor-expressing CHO cells are seeded in 20 μl (5,000 cells per well) into 384-well black wall, clear bottom microtiter plates (Costar). On the day of the experiment, 20 μl per well calcium assay kit containing 10 mM probenicide (Molecular Devices) is added. Cells are loaded for 90 min at 37° C. and 5% CO2 in a cell culture incubator. After loading, 20 μl of serial dilutions of the test compound are added and cells are further incubated for 20 min at room temperature in the dark. After 20 min, 20 μl of a submaximal MCH concentration is added and changes in intracellular calcium are recorded directly in a FLIPR III apparatus (Molecular devices).
Data from assays in the presence of compound were calculated as a percentage of total Ca^2+-responses measured in the absence of test compound. Inhibition curves, plotting percent of total Ca^2+-responses versus the log value of the concentration of the test compound, were automatically generated, and sigmoidal inhibition curves were fitted using non-linear regression. The pIC50 values of test compounds were derived from individual curves.

T1 sequence (Q99705 whole entry): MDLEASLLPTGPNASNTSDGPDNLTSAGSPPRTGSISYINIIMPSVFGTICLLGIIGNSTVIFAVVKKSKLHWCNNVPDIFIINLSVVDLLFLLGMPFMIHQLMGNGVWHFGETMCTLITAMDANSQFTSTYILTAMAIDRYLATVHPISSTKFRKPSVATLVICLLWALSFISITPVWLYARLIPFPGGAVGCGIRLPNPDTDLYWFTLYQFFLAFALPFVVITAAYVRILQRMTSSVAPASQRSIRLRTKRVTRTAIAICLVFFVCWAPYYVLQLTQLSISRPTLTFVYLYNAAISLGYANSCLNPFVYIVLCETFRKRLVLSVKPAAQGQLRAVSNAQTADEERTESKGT

COc1cc(-n2ccnc(NCCOc3ccccc3)c2=O)ccc1/C=C/CN1CCCC1 [1-17]
IC50: 31.6 nM

O=c1c(NCCOc2ccccc2)nccn1-c1ccc(OCCCN2CCCC2)cc1 [1-46]
IC50: 3160 nM

COc1cc(-n2ccnc(NCCOc3ccccc3)c2=O)ccc1OCCN(C)C(=O)CN(C)C [1-63]
IC50: 200 nM

COc1cc(-n2ccnc(NCCOc3ccccc3)c2=O)ccc1OCCNC1CC1 [1-59]
IC50: 63.1 nM

CC(=O)c1cc(-n2ccnc(NCCOc3ccccc3)c2=O)ccc1OCCN1CCCC1 [1-53]
IC50: 100 nM

COc1cc(-n2ccnc(NCCc3ccccc3)c2=O)ccc1OCCCN1CCC(F)(F)CC1 [3-74]
IC50: 31.6 nM

CC(=O)N(C)C1CCN(c2ccc(-n3ccnc(NCCc4ccccc4)c3=O)cc2)C1 (stereo not shown) [3-03]
IC50: 63.1 nM

COc1cc(-n2ccnc(NCCc3ccccc3)c2=O)ccc1OCCNC(=O)CN(C)C [3-40]
IC50: 79.4 nM

COc1cc(-n2ccnc(NCCOc3ccccc3)c2=O)ccc1OCCCN1CCCC(CO)C1 (stereo not shown) [1-78]
IC50: 79.4 nM

COCCN1CCN(c2ccc(-n3ccnc(NCCc4ccccc4)c3=O)cc2Cl)CC1 [3-80]
IC50: 79.4 nM

COc1cc(-n2ccnc(NCCc3ccccc3)c2=O)ccc1N1CCC(N(C)C2CC2)C1 (stereo not shown) [3-17]
IC50: 79.4 nM

COc1cc(-n2ccnc(NCCOc3ccccc3)c2=O)ccc1OCCN(C)C(=O)C1CCCC1 [1-65]
IC50: 100 nM

COC(=O)c1cc(-n2ccnc(NCCOc3ccccc3)c2=O)ccc1OCCN1CCCC1 [1-54]
IC50: 200 nM

COc1cc(-n2ccnc(NCCc3ccccc3)c2=O)ccc1N1CCC(N)C1 (stereo not shown) [3-08]
IC50: 39.8 nM

COCc1cc(-n2ccnc(NCCOc3ccccc3)c2=O)ccc1OCCN1CCCC1 [1-52]
IC50: 158 nM

COc1cc(-n2ccnc(NCCc3ccccc3)c2=O)ccc1OCCN1C(C)COCC1C (stereo not shown) [3-62]
IC50: 39.8 nM

COc1cc(-n2ccnc(NCCc3ccc(Cl)cc3Cl)c2=O)ccc1OCCN1CCCC1 [2-39]
IC50: 200 nM

COc1cc(-n2ccnc(SCCc3ccccc3)c2=O)ccc1C=CCN1CCCC1 [6-12]
IC50: 25.1 nM

COc1cc(-n2ccnc(NCCOc3ccccc3)c2=O)ccc1OCCN1CCC(C#N)CC1 [1-71]
IC50: 100 nM

COc1cc(-n2ccnc(NCCOc3ccccc3)c2=O)ccc1OCCN1CCCC(CO)C1 (stereo not shown) [1-72]
IC50: 50.1 nM

COc1cc(-n2ccnc(NCCOc3ccccc3)c2=O)ccc1OCCN1CCCC1 [1-67]
IC50: 63.1 nM

CN(C1CCN(c2ccc(-n3ccnc(NCCc4ccccc4)c3=O)cc2)C1)S(C)(=O)=O (stereo not shown) [3-01]
IC50: 100 nM

CCCC(=O)N(C)CCOc1ccc(-n2ccnc(NCCOc3ccccc3)c2=O)cc1OC [1-62]
IC50: 50.1 nM

COc1cc(-n2ccnc(SCCc3ccccc3)c2=O)ccc1N1CC[C@@H](N(C)C)C1 [6-06]
IC50: 15.8 nM

COc1cc(-n2ccnc(NCCc3ccccc3)c2=O)ccc1OCCN1CCC(C(N)=O)CC1 [3-53]
IC50: 50.1 nM

CCCN1CCC(Oc2ccc(-n3ccnc(SCCc4ccccc4)c3=O)cc2OC)C1 (stereo not shown) [6-17]
IC50: 15.8 nM

COc1cc(-n2ccnc(N3CCC(c4ccc(C)cc4)C3)c2=O)ccc1OCCN1CCCC1 (stereo not shown) [4-04]
IC50: 316 nM

COc1cc(-n2ccnc(NCCc3ccccc3)c2=O)ccc1OCCCN1CCC(C#N)CC1 [3-73]
IC50: 39.8 nM

COc1cc(-n2ccnc(NCCc3ccccc3)c2=O)ccc1OCCCNC(=O)C1CC1 [3-69]
IC50: 126 nM

COc1cc(-n2ccnc(NCCOc3ccccc3Cl)c2=O)ccc1OCCN1CCCC1 [2-28]
IC50: 79.4 nM

CC(C)C(=O)N(C)C1CCN(c2ccc(-n3ccnc(NCCc4ccccc4)c3=O)cc2)C1 (stereo not shown) [3-04]
IC50: 100 nM

COc1cc(-n2ccnc(NCCc3ccccc3)c2=O)ccc1NC1CCN(C)C1 (stereo not shown) [3-25]
IC50: 63.1 nM

COc1cc(-n2ccnc(NCCc3ccccc3)c2=O)ccc1OCCN1CC[C@H](F)C1 [3-46]
IC50: 50.1 nM

COc1cc(-n2ccnc(NCCc3ccccc3)c2=O)ccc1OCCN1CCCC(CO)C1 (stereo not shown) [3-49]
IC50: 31.6 nM

COc1cc(-n2ccnc(NCCOc3ccccc3)c2=O)ccc1OCCNCCO [1-60]
IC50: 200 nM

COc1cc(-n2ccnc(NCCOc3ccccc3)c2=O)ccc1OCCN1CCC(O)C1 (stereo not shown) [1-68]
IC50: 126 nM

COc1cc(-n2ccnc(NCCc3ccccc3)c2=O)ccc1OCCN1CCC2(CC1)OCCO2 [3-58]
IC50: 50.1 nM

COc1cc(-n2ccnc(N3CCC(c4ccc(Cl)c(Cl)c4)C3)c2=O)ccc1OCCN1CCCC1 (stereo not shown) [4-08]
IC50: 794 nM

COc1cc(-n2ccnc(NCCc3ccccc3Cl)c2=O)ccc1OCCN1CCCC1 [2-22]
IC50: 100 nM

O=C1CCN(CCOc2ccc(-n3ccnc(NCCOc4ccccc4)c3=O)cc2)CC1 [1-40]
IC50: 251 nM
